Test results taken from patent publication US8252308B2, “Feminine anti-itch gel” (C.B. Fleet Company Inc., priority 2005, dated 2012).
Structures can show the parent of a compound that is named as a salt.

Experiment: pH and solubility behaviour of the anesthetic in water
Assay type: physicochemical
Excerpt: In a preferred aspect, the pH modifier and the quantity of the pH modifier are selected to provide a pH to the composition of from 4 to 7, from 4.5 to 6.5, or more preferably from 5 to 5.3 when pramoxine serves as an anesthetic. In one aspect, the preferred pH for the gel is a pH value where the anesthetic is substantially present in its neutral state. For example, the hydrochloride salt of pramoxine has an acidic pH in water of about 4. However, at about pH 5 the pramoxine salt deprotonates to a neutral form that may provide increased transfer of the anesthetic into the vulvar tissues. Thus, a sufficient quantity of a base may be added to the gel as a pH modifier to provide the anesthetic in a substantially neutral form. However, at an upper pH value, such as about 5.2 for pramoxine, the anesthetic may precipitate out of the water phase, thus reducing the clarity of the gel. Thus, in a more preferred aspect, the pH modifier is chosen to provide a pH to the gel at which the majority of the anesthetic is present in its neutral state while remaining substantially solubilized.

water solubility	pH at which the salt deprotonates to a neutral form	upper pH value at which the anesthetic may precipitate out of the water phase	pH in water (hydrochloride salt in water)	Compound
water insoluble	–	–	–	CCOC(=O)c1ccc(N)cc1 [benzocaine]
–	~5	about 5.2	about 4	CCCCOc1ccc(OCCCN2CCOCC2)cc1 [hydrochloride salt of pramoxine, pramoxine hydrochloride]
